{"source": "patent US20150307938A1", "about": "“METHOD TO IDENTIFY A NOVEL CLASS OF IMMUNOLOGIC ADJUVANTS” (Lancell, L.L.C., priority 2011, published 2015)", "test_system": "skin", "assay": "Affymetrix microarray of skin, DBP-4 hr and analogs vs. untreated; gene selection by log-2 fold change, Wilcoxon, Kendall tau (Tables 8, 9)", "format": "in vivo, mouse", "conditions": "for Wilcoxon: DBP-4 hr vs. untreated; for Kendall: Kendall tau, expression vs. outcome", "key": {"[1]": {"conditions": "gene #535 Tmem93 NM_001168470_at"}, "[2]": {"conditions": "gene #536 Nfkb2 NM_001177369_at"}, "[3]": {"conditions": "gene #537 Nfkb2 NM_001177370_at"}, "[4]": {"conditions": "gene #538 Zfp518b NM_001177902_at"}, "[5]": {"conditions": "gene #541 Meis1 NM_001193271_at"}, "[6]": {"conditions": "gene #542 Bcar1 NM_001198839_at"}, "[7]": {"conditions": "gene #543 Dcaf11 NM_001199009_at"}, "[8]": {"conditions": "gene #544 Rabgef1 NM_001199059_at"}, "[9]": {"conditions": "gene #545 4931408A02Rik NM_001199210_at"}}, "data": [{"smiles": "CCCCOC(=O)c1ccccc1C(=O)OCCCC", "note": "[DBP, dibutylphthalate]", "values": [{"measurement": "Log2 Expression Level", "setting": "gene #56 of Table 8", "result": 10.17}, {"measurement": "Log2 Expression Level", "setting": "gene #57 of Table 8", "result": 8.92}, {"measurement": "Log2 Expression Level", "setting": "gene #58 of Table 8", "result": 9.48}, {"measurement": "Log2 Expression Level", "setting": "gene #59 of Table 8", "result": 8.72}, {"measurement": "Log2 Expression Level", "setting": "gene #60 of Table 8", "result": 7.73}, {"measurement": "Log2 Expression Level", "setting": "gene #61 of Table 8", "result": 12.15}, {"measurement": "Log2 Expression Level", "setting": "gene #62 of Table 8", "result": 8.52}, {"measurement": "Log2 Expression Level", "setting": "gene #63 of Table 8", "result": 11.36}, {"measurement": "Log2 Expression Level", "setting": "gene #64 of Table 8", "result": 11.47}, {"measurement": "Log2 Expression Level", "setting": "gene #65 of Table 8", "result": 7.88}, {"measurement": "Log2 Expression Level", "setting": "gene #66 of Table 8", "result": 8.85}, {"measurement": "Log2 Expression Level", "setting": "gene #67 of Table 8", "result": 5.48}, {"measurement": "Log2 Expression Level", "setting": "gene #68 of Table 8", "result": 10.24}, {"measurement": "Log2 Expression Level", "setting": "gene #69 of Table 8", "result": 6.54}, {"measurement": "Log2 Expression Level", "setting": "gene #70 of Table 8", "result": 5.48}, {"measurement": "Log2 Expression Level", "setting": "gene #71 of Table 8", "result": 8.51}, {"measurement": "Log2 Expression Level", "setting": "gene #72 of Table 8", "result": 9.12}, {"measurement": "Log2 Expression Level", "setting": "gene #73 of Table 8", "result": 7.67}, {"measurement": "Log2 Expression Level", "setting": "gene #74 of Table 8", "result": 7.70}, {"measurement": "Log2 Expression Level", "setting": "gene #75 of Table 8", "result": 9.61}, {"measurement": "Log2 Expression Level", "setting": "gene #76 of Table 8", "result": 5.46}, {"measurement": "Log2 Expression Level", "setting": "gene #77 of Table 8", "result": 9.71}, {"measurement": "Log2 Expression Level", "setting": "gene #78 of Table 8", "result": 10.76}, {"measurement": "Log2 Expression Level", "setting": "gene #79 of Table 8", "result": 8.09}, {"measurement": "Log2 Expression Level", "setting": "gene #80 of Table 8", "result": 13.23}, {"measurement": "Log2 Expression Level", "setting": "gene #81 of Table 8", "result": 6.69}, {"measurement": "Log2 Expression Level", "setting": "gene #82 of Table 8", "result": 6.28}, {"measurement": "Log2 Expression Level", "setting": "gene #83 of Table 8", "result": 7.59}, {"measurement": "Log2 Expression Level", "setting": "gene #84 of Table 8", "result": 8.32}, {"measurement": "Log2 Expression Level", "setting": "gene #85 of Table 8", "result": 7.84}, {"measurement": "Log2 Expression Level", "setting": "gene #86 of Table 8", "result": 7.16}, {"measurement": "Log2 Expression Level", "setting": "gene #87 of Table 8", "result": 9.56}, {"measurement": "Log2 Expression Level", "setting": "gene #88 of Table 8", "result": 8.67}, {"measurement": "Log2 Expression Level", "setting": "gene #89 of Table 8", "result": 6.04}, {"measurement": "Log2 Expression Level", "setting": "gene #90 of Table 8", "result": 10.84}, {"measurement": "Log2 Expression Level", "setting": "gene #91 of Table 8", "result": 8.25}, {"measurement": "Log2 Expression Level", "setting": "gene #92 of Table 8", "result": 7.56}, {"measurement": "Log2 Expression Level", "setting": "gene #93 of Table 8", "result": 9.98}, {"measurement": "Log2 Expression Level", "setting": "gene #94 of Table 8", "result": 8.85}, {"measurement": "Log2 Expression Level", "setting": "gene #95 of Table 8", "result": 7.22}, {"measurement": "Log2 Expression Level", "setting": "gene #96 of Table 8", "result": 8.79}, {"measurement": "Log2 Expression Level", "setting": "gene #97 of Table 8", "result": 6.04}, {"measurement": "Log2 Expression Level", "setting": "gene #98 of Table 8", "result": 5.99}, {"measurement": "Log2 Expression Level", "setting": "gene #99 of Table 8", "result": 10.05}, {"measurement": "Log2 Expression Level", "setting": "gene #100 of Table 8", "result": 8.07}, {"measurement": "Wilcoxon", "setting": "[1]", "result": "No"}, {"measurement": "Kendall", "setting": "[1]", "result": "Yes"}, {"measurement": "Wilcoxon", "setting": "[2]", "result": "No"}, {"measurement": "Kendall", "setting": "[2]", "result": "Yes"}, {"measurement": "Wilcoxon", "setting": "[3]", "result": "No"}, {"measurement": "Kendall", "setting": "[3]", "result": "Yes"}, {"measurement": "Wilcoxon", "setting": "[4]", "result": "No"}, {"measurement": "Kendall", "setting": "[4]", "result": "Yes"}, {"measurement": "Wilcoxon", "setting": "gene #539 Ccm2 NM_001190343_at", "result": "No"}, {"measurement": "Kendall", "setting": "gene #539 Ccm2 NM_001190343_at", "result": "Yes"}, {"measurement": "Wilcoxon", "setting": "gene #540 Ccm2 NM_001190344_at", "result": "No"}, {"measurement": "Kendall", "setting": "gene #540 Ccm2 NM_001190344_at", "result": "Yes"}, {"measurement": "Wilcoxon", "setting": "[5]", "result": "No"}, {"measurement": "Kendall", "setting": "[5]", "result": "Yes"}, {"measurement": "Wilcoxon", "setting": "[6]", "result": "No"}, {"measurement": "Kendall", "setting": "[6]", "result": "Yes"}, {"measurement": "Wilcoxon", "setting": "[7]", "result": "No"}, {"measurement": "Kendall", "setting": "[7]", "result": "Yes"}, {"measurement": "Wilcoxon", "setting": "[8]", "result": "No"}, {"measurement": "Kendall", "setting": "[8]", "result": "Yes"}, {"measurement": "Wilcoxon", "setting": "[9]", "result": "No"}, {"measurement": "Kendall", "setting": "[9]", "result": "Yes"}, {"measurement": "Wilcoxon", "setting": "gene #546 Cav1 NM_007616_at", "result": "No"}, {"measurement": "Kendall", "setting": "gene #546 Cav1 NM_007616_at", "result": "Yes"}, {"measurement": "Wilcoxon", "setting": "gene #547 Cdkn2c NM_007671_at", "result": "No"}, {"measurement": "Kendall", "setting": "gene #547 Cdkn2c NM_007671_at", "result": "Yes"}, {"measurement": "Wilcoxon", "setting": "gene #548 Chd1 NM_007690_at", "result": "No"}, {"measurement": "Kendall", "setting": "gene #548 Chd1 NM_007690_at", "result": "Yes"}, {"measurement": "Wilcoxon", "setting": "gene #549 Cox8a NM_007750_at", "result": "No"}, {"measurement": "Kendall", "setting": "gene #549 Cox8a NM_007750_at", "result": "Yes"}, {"measurement": "Wilcoxon", "setting": "gene #550 Epc1 NM_007935_at", "result": "No"}, {"measurement": "Kendall", "setting": "gene #550 Epc1 NM_007935_at", "result": "Yes"}, {"measurement": "Wilcoxon", "setting": "gene #551 Mpzl2 NM_007962_at", "result": "No"}, {"measurement": "Kendall", "setting": "gene #551 Mpzl2 NM_007962_at", "result": "Yes"}, {"measurement": "Wilcoxon", "setting": "gene #552 Fnta NM_008033_at", "result": "No"}, {"measurement": "Kendall", "setting": "gene #552 Fnta NM_008033_at", "result": "Yes"}, {"measurement": "Wilcoxon", "setting": "gene #553 Gcdh NM_008097_at", "result": "No"}, {"measurement": "Kendall", "setting": "gene #553 Gcdh NM_008097_at", "result": "Yes"}, {"measurement": "Wilcoxon", "setting": "gene #554 Gcnt2 NM_008105_at", "result": "No"}, {"measurement": "Kendall", "setting": "gene #554 Gcnt2 NM_008105_at", "result": "Yes"}, {"measurement": "Wilcoxon", "setting": "gene #555 Nr3c1 NM_008173_at", "result": "No"}, {"measurement": "Kendall", "setting": "gene #555 Nr3c1 NM_008173_at", "result": "Yes"}, {"measurement": "Wilcoxon", "setting": "gene #556 Hhex NM_008245_at", "result": "No"}, {"measurement": "Kendall", "setting": "gene #556 Hhex NM_008245_at", "result": "Yes"}]}]}
